Assay results as given in US12128098B2, “Non-specific delayed-type hypersensitivity response to treat herpes simplex virus infection” (Squarex, LLC, priority 2015, dated 2024).
Several values for one entry are separate records, joined by “and”; a condition that tells them apart may be missing. Equal values may be shown once. Entries after “also recorded” stand apart in the source; their conditions may differ. Marks after values point to notes of the source that are not given here.

Assays:
[1] = Clinical trial of SADBE: rash (erythema) from the sensitization dose; format: in vivo, human; settings: pooled treatment groups B and C, 2% SADBE in DMSO
Description: Visit 1: Upon entering the study, patients are sensitized to squaric acid dibutyl ester (SADBE) by dipping a cotton-tipped swab in a 2% solution of SADBE in DMSO and swabbing a 1 cm^2 area on the forearm. Participants are told then to wait at least 2 weeks for their first treatment.

[2] = test system: herpes labialis (HSV cold sore outbreaks); experiment: Clinical trial: treatment of herpes labialis by squaric acid dibutyl ester, time to and proportion of cold sore outbreaks after the sensitization dose; format: in vivo, human; settings: for Average days to first outbreak after the sensitization dose: 120 days used if no outbreak in 120 days
Method: Thirty patients are recruited meeting the following criteria:
In a screening interview, vital signs are recorded, and information is collected on any medications the patient is currently taking, previous and current treatments for cold sores, severity and duration of cold sores.
[…] Participants are told then to wait at least 2 weeks for their first treatment.
Throughout the study, the participants are asked to maintain a subject diary, in which they record each day any symptoms they experience, including fever, swelling, pain, redness, itching, burning, the size of any lesions, and any medications taken.
Visit 2: After the 2-week period to allow development of sensitivity to SADBE, upon the beginning of his or her next outbreak (within 72 hours of the first signs of an outbreak), each participant is swabbed at the site of the herpes labialis lesion with a 0.5% solution of SADBE in DMSO.
Visit 3: Upon the next distinct outbreak at least 2 weeks after the previous treatment at visit 2, study diaries are collected. If the diary reflects redness, blistering, or burning greater than 0.5 cm beyond the clinical lesion with the previous SADBE treatment, the dosage of SADBE is decreased to 0.1%. If the diary reflects no redness or inflammation attributable to SADBE treatment, dosage is increased to 2%. Otherwise, dosage is maintained at 0.5%. Participants are swabbed at the site of the herpes labialis lesion with the SADBE solution.
If the hypersensitivity reaction produced by SADBE is excessive, patients are treated with a topical steroidal antiinflammatory cream. When a patient requests, outbreaks are treated with oral valacyclovir until the outbreak resolves.
For at least 6 months after visit 2, patients maintain their diaries. Every two months the diaries are collected.
A total of 46 patients have been enrolled in the study and have not dropped out.
The p value was calculated using the Fischer's two-tailed exact test.
The average days to the first outbreak after the sensitization dose was also measured. […] The A: placebo, 0% SADBE in DMSO.

warts = settings: intralesional injection together with antigens versus antigen alone; differences not statistically significant; US 20050175634; cited from earlier work
[3] = test system: HSV outbreak (cold sore on lower lip); experiment: Treatment of an individual suffering from frequent and severe cold sores with topical DNCB at the site of the lesion; format: in vivo, human
Description: The individual treated was one of the inventors. They are a person and was […] at the time of this treatment. The subject suffered from frequent cold sores on the lower lip. The outbreaks typically lasted 7-10 days and frequently longer. The subject had suffered from frequent cold sores most of their life. During the 6 months prior to this treatment, the outbreaks had been almost continuous. After getting over one outbreak, the next outbreak would begin often within a week.
In the morning they washed it off. A mild erythema in the area of the cold sore developed over 2-3 days and lasted a further 5 days, and the cold sore resolved in about 7 days, which was a typical duration for this individual or a slightly shorter duration than normal. […] Each outbreak would begin and completely resolve in one day. […] We think this may be because the immune system was recognizing not just the DNCB but also the herpes virus antigens with this second application. With the greater inflammation, the cold sore outbreak was worse than any of the outbreaks between the first and second DNCB treatments. […] The outbreak seemed to worsen as the inflammation associated with the DTH response worsened, and only lessened when the DTH response subsided.
When the outbreak subsided, the subject went another 6 months without any outbreaks to the present time.
For several months before and for the entire time described herein after the initial DNCB treatment, the subject took no antiviral medicines.

[4] = Presensitization and dose finding with DNCB solutions on the forearm (rash / erythema, DTH response); format: in vivo, human; settings: for erythema on forearm: sensitized subject
Description: The subject then applied a 0.1%, 0.2%, and 0.3% solutions to separate small spots on the forearm.

[5] = third treatment, 0.1% DNCB solution on cold sore

## CCCCOc1c(OCCCC)c(=O)c1=O [SADBE, 3,4-Dibutoxy-3-cyclobutene-1,2-dione]
[1]
  subjects who had a rash (erythema) from the sensitization dose: 17 of 28
[2]; <120 days, group B
  Persons having an outbreak within X days after the sensitization dose: 6 (of 16)
[2]; <120 days, group C
  Persons having an outbreak within X days after the sensitization dose: 4 (of 15)
[2]; each patient, 2% SADBE applied to the inner aspect of the upper arm
  Days to first new outbreak after sensitization dose on upper arm: 37 days and 41 days and 50 days and 80 days and 91 days and >120 days (19×) and 14 days (2×) and 15 days and 18 days and 34 days
[2]; group B, n 16
  Average days to first outbreak after the sensitization dose: 88.5 days
[2]; group C, n 15
  Average days to first outbreak after the sensitization dose: 94.7 days
[2]; pooled groups B + C, n 31, p=0.041 vs placebo, t test
  Average days to first outbreak after the sensitization dose: 91.5* days
[2]; pooled groups B and C
  proportion who had a first outbreak between 30 and 120 days after receiving the sensitization dose: 5 of 26
[2]; single topical sensitization dose of 2% SADBE in DMSO on the upper arm, no application at the lesion
  effect on future HSV outbreaks: prevented future HSV outbreaks; also recorded: usually did not have a subsequent outbreak during the study time
[2]; treated patients who did not develop a visible erythema at the site of application
  median time to the next HSV outbreak versus placebo: longer median time to the next HSV outbreak than patients receiving placebo
[2]; treatment group, counting from the day of the sensitization dose
  median time to the next outbreak, outbreaks occurring in the 21 days after the sensitization dose excluded: greater than 120 days
[2]; treatment group, outbreaks in first 21 days excluded
  median time to the next outbreak counting from day 21 after the sensitization dose: greater than 99 days
[2]; within 30 days, group B (2% SADBE in DMSO sensitization, 0.5% treatment solution)
  Persons having an outbreak within X days after the sensitization dose: 2 (of 16)
[2]; within 30 days, group C (2% SADBE in DMSO sensitization, 0.2% treatment solution)
  Persons having an outbreak within X days after the sensitization dose: 3 (of 15)
[2]; within 30 days, pooled groups B + C (of 31), p vs placebo 0.26
  Persons having an outbreak within X days after the sensitization dose: 5
[2]; within 45 days, group B
  Persons having an outbreak within X days after the sensitization dose: 4 (of 16)
[2]; within 45 days, group C
  Persons having an outbreak within X days after the sensitization dose: 4 (of 15)
[2]; within 45 days, pooled groups B + C (of 31), p vs placebo 0.099
  Persons having an outbreak within X days after the sensitization dose: 8
[2]; within 60 days, group B
  Persons having an outbreak within X days after the sensitization dose: 5 (of 16)
[2]; within 60 days, group C
  Persons having an outbreak within X days after the sensitization dose: 4 (of 15)
[2]; within 60 days, pooled groups B + C (of 31), p vs placebo 0.0583
  Persons having an outbreak within X days after the sensitization dose: 9

## interferon alpha
warts
  fraction of patients responding to treatment: A larger fraction of patients receiving interferon or GM-CSF together with the antigens responded to treatment than patients receiving antigen alone

## GM-CSF: cytokine used as immune response enhancer
warts
  fraction of patients responding to treatment: A larger fraction of patients receiving interferon or GM-CSF together with the antigens responded to treatment than patients receiving antigen alone

## O=[N+]([O-])c1ccc(Cl)c([N+](=O)[O-])c1 [DNCB, 1-chloro-2,4-dinitrobenzene]
[3]; 4 weeks following the first 0.2% DNCB treatment of the lip lesion
  severity and duration of subsequent outbreaks: much less severe and of much shorter duration than before
[3]; after the third treatment (0.1% DNCB), to the present time
  time without any outbreak after treatment: 6 months
[3]; first application of 0.2% DNCB in acetone to cold sore on lower lip, left overnight
  erythema in the area of the cold sore: mild erythema
[3]; first application of 0.2% DNCB in acetone to the lip lesion, typical outbreaks before lasted 7-10 days
  time to resolution of the treated cold sore: about 7 days
[3]; following the second DNCB treatment at the site of a lesion
  time without any outbreak after treatment: 6 months
[3]; next 4 weeks following the first 0.2% DNCB treatment
  frequency of cold sore outbreaks after treatment: approximately weekly
[3]; outbreaks in the 4 weeks following the first 0.2% DNCB treatment
  duration of each subsequent outbreak: one
[3]; second application of 0.2% DNCB in acetone to lip lesion, about two months after the first
  inflammation and erythema with the application: more severe than they had been with the first application
[3]; second application of 0.2% DNCB to lip lesion
  duration of the treated HSV outbreak: about 7 days
[3]; [5]
  DTH response at the cold sore: moderate DTH response
  duration of the treated HSV outbreak: about 10 days
[4]; 0.1% DNCB solution
  erythema on forearm: almost no erythema
[4]; 0.2% DNCB solution
  erythema on forearm: mild but easily seen erythema
[4]; 2% DNCB solution in acetone, cotton-tipped swab, two spots on forearm, first application
  rash after presensitizing application: No rash developed
[4]; 2% DNCB solution on forearm, two weeks after the sensitizing dose
  duration of rash after second application: 3 weeks
[4]; 2% DNCB solution on forearm, two weeks after the sensitizing dose, different spots
  rash after second application: very strong but localized rash
